Where two headings read alike, the source gives them in different places.
What was measured:
[1] = Solubility of each salt of T-3811 in distilled water; format: physicochemical; conditions: for pH: pH given beside the solubility of each salt in distilled water; for solubility at 3 h: thermodynamic from solid; for solubility at a physiologically acceptable pH: compared with the other salts of T-3811, in words
Experimental: This sample solution is exposed to ultrasonic wave irradiation 5 (SOLID STATE 1,200, Cho-onpa Kogyo) in cold water for 3 hours and then filtered through a filter with a pore size of 0.45-μm (MILLEX-HV13, MILLIPORE).

[2] = Stability against humidity; format: physicochemical; conditions: in words
[3] = Solubility of T-3811 in the vicinity of neutral; format: physicochemical; conditions: in words
[4] = tested on: Gram-positive and Gram-negative bacteria; conditions: background statement, in words; cited from earlier work
[5] = about 50 mg salt in 2 ml distilled water, ultrasonic wave irradiation in cold water 3 hours, 0.45-μm filtrate, T-3811 content by liquid chromatography, read-out: Solubility

Structure (SMILES) | pH [1] | solubility at 3 h [1, 5] [µg/mL] | further results
C[C@H]1NCc2cc(-c3ccc4c(=O)c(C(=O)O)cn(C5CC5)c4c3OC(F)F)ccc21.Cl [Hydrochloride, (R)-1-cyclopropyl-8-difluoromethoxy-7-(1-methyl-2,3-dihydro-1H-5-isoindolyl)-4-oxo-1,4-dihydro-3-quinolinecarboxylic acid hydrochloride] | 3.99 | – | solubility at 3 h ([1]; water): 5450 µg/mL
C[C@H]1NCc2cc(-c3ccc4c(=O)c(C(=O)[O-])cn(C5CC5)c4c3OC(F)F)ccc21.C[C@H]1NCc2cc(-c3ccc4c(=O)c(C(=O)[O-])cn(C5CC5)c4c3OC(F)F)ccc21.[Mg+2] [Magnesium salt, magnesium salt of (R)-1-cyclopropyl-8-difluoromethoxy-7-(1-methyl-2,3-dihydro-1H-5-isoindolyl)-4-oxo-1,4-dihydro-3-quinolinecarboxylic acid] | 7.58 | – | Solubility ([1]; about 50 mg salt in 2 ml distilled water, ultrasonic wave irradiation in cold water 3 hours, 0.45-μm filtrate, T-3811 content by liquid chromatography): 60 µg/mL
CS(=O)(=O)O.C[C@H]1NCc2cc(-c3ccc4c(=O)c(C(=O)O)cn(C5CC5)c4c3OC(F)F)ccc21 [Methanesulfonate, (R)-1-cyclopropyl-8-difluoromethoxy-7-(1-methyl-2,3-dihydro-1H-5-isoindolyl)-4-oxo-1,4-dihydro-3-quinolinecarboxylic acid methanesulfonate] | 3.66 | 16500 | solubility at a physiologically acceptable pH ([1]; listed as methanesulfonate of T-3811, methanesulfonate): much higher; solubility at a physiologically acceptable pH ([1]; listed as t-3811 methanesulfonate, methanesulfonate): remarkably high
CS(=O)(=O)O.C[C@H]1NCc2cc(-c3ccc4c(=O)c(C(=O)O)cn(C5CC5)c4c3OC(F)F)ccc21.O [T-3811 methanesulfonate hydrate, (R)-1-cyclopropyl-8-difluoromethoxy-7-(1-methyl-2,3-dihydro-1H-5-isoindolyl)-4-oxo-1,4-dihydro-3-quinolinecarboxylic acid methanesulfonate monohydrate] | – | – | stability against humidity [2]: good
C[C@H]1NCc2cc(-c3ccc4c(=O)c(C(=O)O)cn(C5CC5)c4c3OC(F)F)ccc21.O=S(=O)(O)O [Sulfate, (R)-1-cyclopropyl-8-difluoromethoxy-7-(1-methyl-2,3-dihydro-1H-5-isoindolyl)-4-oxo-1,4-dihydro-3-quinolinecarboxylic acid sulfate] | 3.46 | 1170 | –
C[C@H](O)C(=O)O.C[C@H]1NCc2cc(-c3ccc4c(=O)c(C(=O)O)cn(C5CC5)c4c3OC(F)F)ccc21 [L-lactate, (R)-1-cyclopropyl-8-difluoromethoxy-7-(1-methyl-2,3-dihydro-1H-5-isoindolyl)-4-oxo-1,4-dihydro-3-quinolinecarboxylic acid L-lactate] | 4.40 | 1980 | –
C[C@H]1NCc2cc(-c3ccc4c(=O)c(C(=O)O)cn(C5CC5)c4c3OC(F)F)ccc21.O=P(O)(O)O [Phosphate, (R)-1-cyclopropyl-8-difluoromethoxy-7-(1-methyl-2,3-dihydro-1H-5-isoindolyl)-4-oxo-1,4-dihydro-3-quinoline-carboxylic acid phosphate] | 3.29 | 8520 | –
C[C@H]1NCc2cc(-c3ccc4c(=O)c(C(=O)[O-])cn(C5CC5)c4c3OC(F)F)ccc21.[Na+] [Sodium salt, sodium (R)-1-cyclopropyl-8-difluoromethoxy-7-(1-methyl-2,3-dihydro-1H-5-isoindolyl)-4-oxo-1,4-dihydro-3-quinolinecarboxylate] | 10.11 | 2340 | –
CC(=O)O.C[C@H]1NCc2cc(-c3ccc4c(=O)c(C(=O)O)cn(C5CC5)c4c3OC(F)F)ccc21 [Acetate, (R)-1-cyclopropyl-8-difluoromethoxy-7-(1-methyl-2,3-dihydro-1H-5-isoindolyl)-4-oxo-1,4-dihydro-3-quinolinecarboxylic acid acetate] | 4.22 | – | solubility at 3 h ([1]; water): 6230 µg/mL
C[C@H]1NCc2cc(-c3ccc4c(=O)c(C(=O)O)cn(C5CC5)c4c3OC(F)F)ccc21 [Example T-3811, (R)-1-cyclopropyl-8-difluoromethoxy-7-(1-methyl-2,3-dihydro-1H-5-isoindolyl)-4-oxo-1,4-dihydro-3-quinoline-carboxylic acid] | – | – | solubility in the vicinity of neutral [3]: low; activity against Gram-positive and Gram-negative bacteria [4]: excellent
C[C@H]1NCc2cc(-c3ccc4c(=O)c(C(=O)O)cn(C5CC5)c4c3OC(F)F)ccc21.O=C(O)CC(O)(CC(=O)O)C(=O)O [Citrate, (R)-1-cyclopropyl-8-difluoromethoxy-7-(1-methyl-2,3-dihydro-1H-5-isoindolyl)-4-oxo-1,4-dihydro-3-quinolinecarboxylic acid citrate] | 3.90 | 420 | –

— patent US6337399B1, “Processes for producing 7-isoindolinequinolonecarboxylic derivatives and intermediates therefor, salts of 7-isoindolinequinolonecarboxylic acids, hydrates thereof, and composition containing the same as active ingredient” (priority 1997, dated 2002)
